Experiment [1] has as its system IFNγ-induced Nitric Oxide production. As to the kind of experiment: Nitric oxide production assay in RAW 264.7 mouse macrophages. The format is cell-based. Particulars: RAW264.7, suppression of IFNγ-induced NO production normalized to cell viability (WST-1), RAW 264.7, 24 hours IFNγ. The procedure, abridged:
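Cells pre-treated 2 h with compound (0.4-200 nM or 2-1000 nM) in RPMI 1640 + 0.5% FBS, then stimulated with recombinant mouse IFNγ for 24 h at 37 °C. Nitrite measured by Griess reagent, viability by WST-1; IC50 from NO suppression normalized to viability and to DMSO/IFNγ controls.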
For orientation: Formazan colour is commonly taken as a measure of viable cells.

The next experiment concerns the target T1, human RORγ (Homo sapiens, UniProt P51449).
T1 sequence (P51449 269-508 limits assumed): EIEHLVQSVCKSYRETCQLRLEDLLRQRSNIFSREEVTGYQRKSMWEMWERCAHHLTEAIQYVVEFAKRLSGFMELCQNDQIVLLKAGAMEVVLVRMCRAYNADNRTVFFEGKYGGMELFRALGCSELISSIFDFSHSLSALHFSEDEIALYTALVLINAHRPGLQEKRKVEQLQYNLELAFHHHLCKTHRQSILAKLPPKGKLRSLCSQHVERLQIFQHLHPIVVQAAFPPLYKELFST
As to the kind of experiment: RORγ assay (GAL4-RORγ hybrid luciferase reporter, inverse-agonist activity). The format is cell-based. Particulars: GAL4-RORγ hybrid reporter cells, 23 hours. The procedure, abridged: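 Human cell line expressing GAL4-DBD/RORγ hybrid with UAS-driven luciferase, treated in triplicate with compound (0.4–200 nM or 2–1000 nM) for 23 h at 37 °C. Luminescence normalized to DMSO; viability measured in parallel by multiplex assay. IC50 for RORγ and viability by variable-slope nonlinear regression.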
On the technique in general: In a reporter assay the amount or activity of a reporter protein is the signal.

Another experiment has as its system hIL17. Nature of the experiment: IL-17 release from differentiated primary human T-cells (IL-17A HTRF assay). The experiment is classed as cell-based. Particulars: inhibition of IL-17A levels; primary human CD4+ T cells differentiated into Th17 cells, 46-hour incubation. In a few lines: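 Cryopreserved primary human CD4+ T cells were activated with anti-CD3/CD28 beads and driven to Th17 with TGF-β, IL-6, IL-23 and IL-1β in the presence of compound (2-500 nM or 4-1000 nM) for 46 h at 37° C. Supernatant IL-17A was quantified by HTRF against a standard curve and normalized to DMSO. IC50s came from variable-slope fits, with viability read by CyQuant.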

The next experiment has as its system NRF2. Nature of the experiment: AREc32 luciferase reporter assay. The experiment is classed as cell-based, human. Particulars: EC2×: concentration required to increase GST ARE Luciferase reporter activity by 2-fold; AREc32 cells, 19 hours. In a few lines: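 AREc32 cells (MCF-7 stably carrying eight rat GSTA2 ARE copies driving firefly luciferase) treated 19 h with compound (0.4–200 nM or 2–1000 nM), triplicate. Luminescence normalized to DMSO as fold-induction; variable-slope fit capped at 50-fold; EC2× = concentration giving 2-fold induction.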

pIC50: −log10 of the molar value. A value given as a limit tells only on which side of the number the result lay.

As a reminder, the pIC50 is the IC50 on a negative log10 scale, so that one unit is a factor of ten.

`CC1(C)CC[C@]2(NC(=O)C(C)(F)F)CC[C@]3(C)[C@H](C(=O)C=C4[C@@]5(C)C=C(C#N)C(=O)[C@@](C)(O)[C@@H]5CC[C@]43C)[C@@H]2C1` [Compound T27, N-((4aS,6aR,6bS,8aR,9S,12aS,14aR,14bS)-11-cyano-9-hydroxy-2,2,6a,6b,9,12a-hexamethyl-10,14-dioxo-1,3,4,5,6,6a,6b,7,8,8a,9,10,12a,14,14a,14b-hexadecahydropicen-4a(2H)-yl)-2,2-difluoropropanamide]: the pIC50 in experiment [1] was 6.84; at human RORγ, 6.39; in the experiment on hIL17, 7.21. The “EC2x: concentration giving 2-fold induction of ARE luciferase reporter” value in the experiment with NRF2 was 396 nM.
For `Cc1noc([C@]23CCC(C)(C)C[C@H]2[C@H]2C(=O)C=C4[C@@]5(C)C=C(C#N)C(=O)C(C)(C)[C@@H]5CC[C@@]4(C)[C@]2(C)CC3)n1` [Comparison Compound #9, reference compound], in that order: 8.92, 6.75, 7.74 and 12 nM.
As to `CC1(C)CC[C@]2(NC(=O)C(C)(F)F)CC[C@]3(C)[C@H](C(=O)C=C4[C@@]5(C)C=C(C#N)C(=O)[C@@](C)(CO)[C@@H]5CC[C@]43C)[C@@H]2C1` [Compound T28, N-((4aS,6aR,6bS,8aR,9R,12aS,14aR,14bS)-11-cyano-9-(hydroxymethyl)-2,2,6a,6b,9,12a-hexamethyl-10,14-dioxo-1,3,4,5,6,6a,6b,7,8,8a,9,10,12a,14,14a,14b-hexadecahydropicen-4a(2H)-yl)-2,2-difluoropropanamide], the pIC50 is 7.68 in experiment [1], 6.33 on human RORγ and 7.17 in the experiment with hIL17. The “EC2x: concentration giving 2-fold induction of ARE luciferase reporter” value in the experiment on NRF2 turned out to be 117 nM.
For `CC1(C)CC[C@]2(NC(=O)C(C)(F)F)CC[C@]3(C)[C@H](C(=O)C=C4[C@@]5(C)[C@H]6O[C@@]6(C#N)C(=O)[C@@](C)(O)[C@@H]5CC[C@]43C)[C@@H]2C1` [Compound T51, N-((1aR,3S,3aR,5aS,5bR,7aS,11aS,11bR,13bS,13cR)-1a-cyano-3-hydroxy-3,5a,5b,10,10,13b-hexamethyl-2,12-dioxo-1a,3,3a,4,5,5a,5b,6,7,8,9,10,11,11a,11b,12,13b,13c-octadecahydropiceno[1,2-b]oxiren-7a(2H)-yl)-2,2-difluoropropanamide] the same measures were 6.93, 5.77, 6.86 and 840 nM.
Consider `COCOC[C@@]1(C)C(=O)C(C#N)=C[C@]2(C)C3=CC(=O)[C@@H]4[C@@H]5CC(C)(C)CC[C@]5(C(=O)OC)CC[C@@]4(C)[C@]3(C)CC[C@@H]12` [Comparison Compound #302, reference compound], for which the results for the pIC50 (in experiment [1]; at human RORγ; in the experiment on hIL17) were 7.88, 7.04 and 7.62, respectively. The “EC2x: concentration giving 2-fold induction of ARE luciferase reporter” value with NRF2 stood at 78 nM.
As for `COC(=O)[C@]12CCC(C)(C)C[C@H]1[C@H]1C(=O)C=C3[C@@]4(C)C=C(C#N)C(=O)[C@@](C)(O)[C@@H]4CC[C@@]3(C)[C@]1(C)CC2` [Compound T5], the results for the pIC50 (in experiment [1]; on human RORγ; in the experiment with hIL17) were 7.65, 6.94 and 7.74, respectively. Also, the “EC2x: concentration giving 2-fold induction of ARE luciferase reporter” value with NRF2 worked out at 56 nM.
Turning to `CC1(C)CC[C@@]23CC[C@@]4(C)[C@]5(C)CC[C@H]6[C@](C)(C(N)=O)C(=O)C(C#N)=C[C@]6(C)C5=CC(=O)[C@]4(OC2=O)[C@@H]3C1` [Compound T37, (4S,4aR,6aR,6bS,8aS,12aR,12bS,14bS)-2-cyano-4,6a,6b, 11,11,14b-hexamethyl-3,13,16-trioxo-4,4a,5,6,6a,6b,7,8,10,11,12,12a,13,14b-tetradecahydro-3H,9H-12b,8a-(epoxymethano)picene-4-carboxamide], the pIC50 in experiment [1] is less than 6.00; on human RORγ, 5.87; with hIL17 it was 6.47. For the same molecule, the “EC2x: concentration giving 2-fold induction of ARE luciferase reporter” value with NRF2 is more than 1000 nM.
For `CC1(C)CC[C@@]23CC[C@@]4(C)[C@]5(C)CC[C@H]6[C@](C)(O)C(=O)C(C#N)=C[C@]6(C)C5=CC(=O)[C@]4(OC2=O)[C@@H]3C1` [Compound T33, (4S,4aR,6aR,6bS,8aS,12aR,12bS,14bS)-4-hydroxy-4,6a,6b, 11,11,14b-hexamethyl-3,13,16-trioxo-4,4a,5,6,6a,6b,7,8,10,11,12,12a,13,14b-tetradecahydro-3H,9H-12b,8a-(epoxymethano)picene-2-carbonitrile], in that order: 7.10, 6.66, 7.60 and 120 nM.
With `Cc1nnc([C@]23CCC(C)(C)C[C@H]2[C@H]2C(=O)C=C4[C@@]5(C)C=C(C#N)C(=O)C(C)(C)[C@@H]5CC[C@@]4(C)[C@]2(C)CC3)o1` [Comparison Compound #8, reference compound], the values for the pIC50 (in experiment [1]; at human RORγ; with hIL17) were 8.70, 6.65 and 7.49, respectively. Besides, the “EC2x: concentration giving 2-fold induction of ARE luciferase reporter” value with NRF2 is reported as 15 nM.
Turning to `COC(=O)[C@]12CCC(C)(C)C[C@H]1[C@H]1C(=O)C=C3[C@@]4(C)C=C(C#N)C(=O)[C@@](C)(C(=O)OC)[C@@H]4CC[C@@]3(C)[C@]1(C)CC2` [Compound T2, dimethyl (4S,4aR,6aS,6bR,8aS,12aS,12bR,14bS)-2-cyano-4,6a,6b,11,11,14b-hexamethyl-3,13-dioxo-4,4a,5,6,6a,6b,7,8,9,10,11,12,12a,12b,13,14b-hexadecahydropicene-4,8a(3H)-dicarboxylate], the pIC50 is 7.04 in experiment [1], 6.67 at human RORγ and 7.72 in the experiment with hIL17. The “EC2x: concentration giving 2-fold induction of ARE luciferase reporter” value in the experiment with NRF2 stood at 204 nM.

Source of the values: US11584775B2, “C4-modified oleanolic acid derivatives for inhibition of IL-17 and other uses” (REATA PHARMACEUTICALS, INC., priority 2015, dated 2023).
